# In ChEMBL document CHEMBL1201862, “PubChem BioAssay data set” (2004):
#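 A five-concentration, 48-hour dose response in 96-well plates underlies each endpoint, interpolated linearly between surrounding concentrations. GI50 is the concentration that inhibits growth by half.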 The source made the active and inactive calls. Rule as the data show it: active = GI50 up to about 1.1 µM and inactive = higher.
# Key:
# Assay in all cases: DTP human tumour cell line panel, 48 h
# SK-MEL-28 = test system: SK-MEL-28
# MDA-MB-435 = test system: MDA-MB-435
# CAKI-1 = test system: CAKI-1
# HT-29 = test system: HT-29
# CCRF-CEM = test system: CCRF-CEM
# T47D = test system: T47D
# M14 = test system: M14
# 786-0 = test system: 786-0
# RXF 393 = test system: RXF 393
# IGROV-1 = test system: IGROV-1
# ACHN = test system: ACHN
# HL-60 = test system: HL-60
# SK-MEL-2 = test system: SK-MEL-2
# COLO 205 = test system: COLO 205
# UACC-257 = test system: UACC-257
# UO-31 = test system: UO-31
# HCT-116 = test system: HCT-116
# SR = test system: SR
# A498 = test system: A498
# SF-268 = test system: SF-268
# NCI/ADR-RES = test system: NCI/ADR-RES
# BT-549 = test system: BT-549
# RPMI-8226 = test system: RPMI-8226
# SK-OV-3 = test system: SK-OV-3
# SNB-19 = test system: SNB-19
# SF-539 = test system: SF-539
# K562 = test system: K562
# HCC 2998 = test system: HCC 2998
# NCI-H23 = test system: NCI-H23
# U-251 = test system: U-251
# MOLT-4 = test system: MOLT-4
# HOP-62 = test system: HOP-62
# SNB-75 = test system: SNB-75
# Hs-578T = test system: Hs-578T
# OVCAR-5 = test system: OVCAR-5
# UACC-62 = test system: UACC-62
# HOP-92 = test system: HOP-92
# SK-MEL-5 = test system: SK-MEL-5
# OVCAR-4 = test system: OVCAR-4
# OVCAR-8 = test system: OVCAR-8
# A549 = test system: A549
# PC-3 = test system: PC-3
# OVCAR-3 = test system: OVCAR-3
# NCI-H226 = test system: NCI-H226
# KM12 = test system: KM12
# DU-145 = test system: DU-145
# SW-620 = test system: SW-620
# LOX IMVI = test system: LOX IMVI
# HCT-15 = test system: HCT-15
# NCI-H460 = test system: NCI-H460
# MCF7 = test system: MCF7
# MDA-N = test system: MDA-N
# NCI-H522 = test system: NCI-H522
# SN12C = test system: SN12C
# Malme-3M = test system: Malme-3M
# EKVX = test system: EKVX
# SF-295 = test system: SF-295
# TK-10 = test system: TK-10
# MDA-MB-231 = test system: MDA-MB-231
smiles,measurement,setting,value
CCOC(=O)C(NC(=O)Nc1ccc(C)cc1)(OCC)C(F)(F)F (stereo not given),GI50,SK-MEL-28,> 100 µM (inactive)
same,GI50,MDA-MB-435,> 100 µM (inactive)
same,GI50,CAKI-1,1.18 µM (inactive)
same,GI50,HT-29,> 100 µM (inactive)
same,GI50,CCRF-CEM,> 100 µM (inactive)
same,GI50,T47D,> 100 µM (inactive)
same,GI50,M14,> 100 µM (inactive)
same,GI50,786-0,> 100 µM (inactive)
same,GI50,RXF 393,> 100 µM (inactive)
same,GI50,IGROV-1,> 100 µM (inactive)
same,GI50,ACHN,56.5 µM (inactive)
same,GI50,HL-60,64.4 µM (inactive)
same,GI50,SK-MEL-2,> 100 µM (inactive)
same,GI50,COLO 205,> 100 µM (inactive)
same,GI50,UACC-257,> 100 µM (inactive)
same,GI50,UO-31,54.1 µM (inactive)
same,GI50,HCT-116,> 100 µM (inactive)
same,GI50,SR,88.9 µM (inactive)
same,GI50,A498,53.8 µM (inactive)
same,GI50,SF-268,> 100 µM (inactive)
same,GI50,NCI/ADR-RES,42.3 µM (inactive)
same,GI50,BT-549,> 100 µM (inactive)
same,GI50,RPMI-8226,> 100 µM (inactive)
same,GI50,SK-OV-3,> 100 µM (inactive)
same,GI50,SNB-19,> 100 µM (inactive)
same,GI50,SF-539,> 100 µM (inactive)
same,GI50,K562,> 100 µM (inactive)
same,GI50,HCC 2998,> 100 µM (inactive)
same,GI50,NCI-H23,> 100 µM (inactive)
same,GI50,U-251,> 100 µM (inactive)
same,GI50,MOLT-4,> 100 µM (inactive)
same,GI50,HOP-62,26.5 µM (inactive)
same,GI50,SNB-75,> 100 µM (inactive)
same,GI50,Hs-578T,71.4 µM (inactive)
same,GI50,OVCAR-5,> 100 µM (inactive)
Oc1c(Cl)cc2cc1-c1cc(cc(Cl)c1O)CCc1c(cc(Cl)c(O)c1Cl)-c1cc(Cl)c(c(Cl)c1O)/C=C\2,GI50,UACC-62,8.69 µM (inactive)
same,GI50,HOP-92,16.8 µM (inactive)
same,GI50,SK-MEL-5,8.17 µM (inactive)
same,GI50,SK-MEL-28,7.08 µM (inactive)
same,GI50,OVCAR-4,9.04 µM (inactive)
same,GI50,MDA-MB-435,8.02 µM (inactive)
same,GI50,HT-29,11.4 µM (inactive)
same,GI50,CCRF-CEM,3.56 µM (inactive)
same,GI50,T47D,8.41 µM (inactive)
same,GI50,M14,7.23 µM (inactive)
same,GI50,OVCAR-8,7.91 µM (inactive)
same,GI50,A549,10.6 µM (inactive)
same,GI50,786-0,8.36 µM (inactive)
same,GI50,PC-3,8.3 µM (inactive)
same,GI50,RXF 393,15.2 µM (inactive)
same,GI50,IGROV-1,8.99 µM (inactive)
same,GI50,ACHN,13.7 µM (inactive)
same,GI50,HL-60,5.61 µM (inactive)
same,GI50,OVCAR-3,7.4 µM (inactive)
same,GI50,NCI-H226,11.5 µM (inactive)
same,GI50,KM12,7.76 µM (inactive)
same,GI50,SK-MEL-2,8.81 µM (inactive)
same,GI50,COLO 205,8.24 µM (inactive)
same,GI50,UACC-257,13.6 µM (inactive)
same,GI50,DU-145,9.18 µM (inactive)
same,GI50,HCT-116,8.11 µM (inactive)
same,GI50,SR,3.91 µM (inactive)
same,GI50,A498,14.3 µM (inactive)
same,GI50,SF-268,8.43 µM (inactive)
same,GI50,SW-620,9.44 µM (inactive)
same,GI50,NCI/ADR-RES,13.7 µM (inactive)
same,GI50,LOX IMVI,9.44 µM (inactive)
same,GI50,BT-549,16 µM (inactive)
same,GI50,RPMI-8226,22.1 µM (inactive)
same,GI50,SK-OV-3,9.16 µM (inactive)
same,GI50,SNB-19,11.6 µM (inactive)
same,GI50,K562,> 50 µM (inactive)
same,GI50,HCC 2998,6.98 µM (inactive)
same,GI50,NCI-H23,13.3 µM (inactive)
same,GI50,U-251,11.6 µM (inactive)
same,GI50,MOLT-4,30.2 µM (inactive)
same,GI50,HCT-15,7.96 µM
same,GI50,HOP-62,7.74 µM (inactive)
same,GI50,SNB-75,9.02 µM (inactive)
same,GI50,Hs-578T,11.1 µM (inactive)
same,GI50,NCI-H460,4.42 µM (inactive)
same,GI50,OVCAR-5,10.8 µM (inactive)
C=CC1(CC[C@]2(c3ccc(OC)c(OC)c3)C=[N+]([O-])O[C@H](O[C@@H]3CCCC[C@H]3C(C)(C)c3ccccc3)C2)OCC(C)(C)CO1,GI50,UACC-62,14 µM (inactive)
same,GI50,HOP-92,13.5 µM (inactive)
same,GI50,SK-MEL-5,14.7 µM (inactive)
same,GI50,SK-MEL-28,19.9 µM (inactive)
same,GI50,OVCAR-4,11.3 µM (inactive)
same,GI50,MDA-MB-435,11.5 µM (inactive)
same,GI50,CAKI-1,6.95 µM (inactive)
same,GI50,MCF7,3.65 µM (inactive)
same,GI50,HT-29,9.79 µM (inactive)
same,GI50,CCRF-CEM,4.18 µM (inactive)
same,GI50,T47D,11.6 µM (inactive)
same,GI50,M14,16.3 µM (inactive)
same,GI50,OVCAR-8,7.64 µM (inactive)
same,GI50,MDA-N,6.11 µM (inactive)
same,GI50,A549,14.6 µM (inactive)
same,GI50,786-0,11.9 µM (inactive)
same,GI50,PC-3,7.23 µM (inactive)
same,GI50,RXF 393,12.4 µM (inactive)
same,GI50,IGROV-1,6.82 µM (inactive)
same,GI50,ACHN,16 µM (inactive)
same,GI50,HL-60,1.97 µM (inactive)
same,GI50,OVCAR-3,6.59 µM (inactive)
same,GI50,NCI-H226,19.9 µM (inactive)
same,GI50,KM12,14.3 µM (inactive)
same,GI50,SK-MEL-2,12.6 µM (inactive)
same,GI50,COLO 205,16.9 µM (inactive)
same,GI50,UACC-257,18.8 µM (inactive)
same,GI50,DU-145,13.9 µM (inactive)
same,GI50,UO-31,11.5 µM (inactive)
same,GI50,HCT-116,5.57 µM (inactive)
same,GI50,SR,> 19.9 µM (inactive)
same,GI50,A498,> 45 µM (inactive)
same,GI50,SF-268,7.13 µM (inactive)
same,GI50,SW-620,22.5 µM (inactive)
same,GI50,NCI-H522,3.11 µM (inactive)
same,GI50,NCI/ADR-RES,10.7 µM (inactive)
same,GI50,SN12C,10.8 µM (inactive)
same,GI50,LOX IMVI,10.5 µM (inactive)
same,GI50,BT-549,21 µM (inactive)
same,GI50,Malme-3M,7.26 µM (inactive)
same,GI50,RPMI-8226,2.34 µM (inactive)
same,GI50,SK-OV-3,> 44.1 µM (inactive)
same,GI50,SNB-19,21.9 µM (inactive)
same,GI50,SF-539,14.8 µM (inactive)
same,GI50,EKVX,12.7 µM (inactive)
same,GI50,K562,8.17 µM (inactive)
same,GI50,HCC 2998,16.1 µM (inactive)
same,GI50,SF-295,22.1 µM (inactive)
same,GI50,NCI-H23,16.2 µM (inactive)
same,GI50,U-251,20 µM (inactive)
same,GI50,MOLT-4,3.78 µM (inactive)
same,GI50,HCT-15,8.2 µM
same,GI50,HOP-62,14.7 µM (inactive)
same,GI50,SNB-75,9.62 µM (inactive)
same,GI50,TK-10,25.4 µM (inactive)
same,GI50,NCI-H460,16.5 µM (inactive)
same,GI50,MDA-MB-231,13.5 µM (inactive)
same,GI50,OVCAR-5,16.4 µM (inactive)
